Measured values as given in PubChem BioAssay (NCI).
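Abbreviation: GI50, concentration required for 50% inhibition of growth. TGI is the concentration that stops growth completely.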

How the values were obtained:
Test in all cases: inhibition of tumour cell growth, NCI panel, 384-well format
TK-10 renal = system: TK-10 renal
A498 renal = system: A498 renal
HS 578T breast = system: HS 578T breast
MDA-MB-468 breast = system: MDA-MB-468 breast
OVCAR-3 ovarian = system: OVCAR-3 ovarian
DU-145 prostate = system: DU-145 prostate
BT-549 breast = system: BT-549 breast
EKVX NSCLC = system: EKVX NSCLC
HL-60(TB) leukemia = system: HL-60(TB) leukemia
SR leukemia = system: SR leukemia
HCT-116 colon = system: HCT-116 colon
HOP-92 NSCLC = system: HOP-92 NSCLC
T-47D breast = system: T-47D breast
U251 glioblastoma = system: U251 glioblastoma
RXF 393 renal = system: RXF 393 renal
CAKI-1 renal = system: CAKI-1 renal
IGROV1 ovarian = system: IGROV1 ovarian
ACHN renal = system: ACHN renal
MALME-3M melanoma = system: MALME-3M melanoma

## NC[C@@](O)(c1ccc(Cl)cc1)c1ccc(-c2cn[nH]c2)cc1
TK-10 renal
  GI50: 904 nM
  TGI: 2110 nM
A498 renal
  GI50: 1320 nM
  TGI: 2610 nM
HS 578T breast
  GI50: 957 nM
  TGI: 2150 nM
MDA-MB-468 breast
  GI50: 849 nM
  TGI: 2110 nM
OVCAR-3 ovarian
  GI50: 1960 nM
  TGI: 3390 nM
DU-145 prostate
  GI50: 1470 nM
  TGI: 2810 nM
BT-549 breast
  GI50: 511 nM
  TGI: 1780 nM
EKVX NSCLC
  GI50: 560 nM
  TGI: 1820 nM
HL-60(TB) leukemia
  GI50: 944 nM
  TGI: 2160 nM
SR leukemia
  GI50: 369 nM
  TGI: 1380 nM
HCT-116 colon
  GI50: 1650 nM
  TGI: 3080 nM
HOP-92 NSCLC
  GI50: 1200 nM
  TGI: 2530 nM
T-47D breast
  GI50: 1300 nM
  TGI: 2590 nM
U251 glioblastoma
  GI50: 1580 nM
  TGI: 2950 nM
RXF 393 renal
  GI50: 999 nM
  TGI: 2180 nM
CAKI-1 renal
  GI50: 560 nM
  TGI: 1940 nM
IGROV1 ovarian
  GI50: 323 nM
  TGI: 1270 nM
ACHN renal
  GI50: 1320 nM
  TGI: 2600 nM
MALME-3M melanoma
  GI50: 1650 nM
  TGI: 3020 nM
